Assay [1] deals with Lx304 ASCL1^high chemonaive SCLC PDX. In words: In vivo treatment, tumor growth of chemonaive SCLC PDX Lx304. To be noted: Lx304 PDX in NSG mice; day 14; cisplatin 2 mg/kg i.p. once/week, etoposide 3 mg/kg i.p. QDx3, Selinexor 10 mg/kg p.o. QDx3. As for the experimental part:
(§1) For treatments, 5-10 NOD.Cg-Prkd^scid Il2rg^tm1Wjl/SzJ (NSG) mice were engrafted per treatment arm and incubated until they reached 100-150 mm^3. At that point, mice were randomized into groups and treated with either vehicle, Cisplatin (2 mg/kg i.p. once/week), Etoposide (3 mg/kg i.p. QD×3), Selinexor (10 mg/kg p.o. QD×3), irinotecan (50 mg/kg i.p. WQ), or the combinations of cisplatin+etoposide, cisplatin+Selinexor, cisplatin+etoposide+Selinexor or irinotecan+Selinexor, at the previously mentioned doses. Mice weights and tumor volumes were measured twice a week and mice were sacrificed when tumors reached humane endpoint. All animal experiments were approved by the Memorial Sloan Kettering Cancer Center (MSKCC) Animal Care and Use Committee.

Assay [2] deals with Lx33 NEUROD1^high chemonaive SCLC PDX. In words: In vivo treatment, tumor growth of chemonaive SCLC PDX Lx33. To be noted: Lx33 PDX in NSG mice; day 17; cisplatin 2 mg/kg i.p. once/week, etoposide 3 mg/kg i.p. QDx3, Selinexor 10 mg/kg p.o. QDx3. As to the method: as §1
Assay [3] deals with AKT/mTOR pathway in H69 and H82 cell lines. The experiment in a line: Western blot of AKT/mTOR pathway activation. In kind it is cell-based. On the set-up: concentration or dose not given beside the values. To be noted: selinexor or combinations for 7 days. As to the method: FIGS. 9A-9G show impairment of chemotherapy-induced AKT/mTOR overactivation may contribute to selinexor efficacy in combination with chemotherapy. […] Synergy plots, showing the occurrence of synergy, addition, or antagonism (green), were calculated with the HSA method using the SynergyFinder web application (2.0).
(§2) Protein extraction and western blot were performed as previously described in Gardner, E. E. et al., Cancer Cell 31: 286-299 (2017), which is incorporated by reference in its entirety herein. Antibodies for pγH2AX (#39117, Active Motif, Carlsbad, CA), pATR (#53217, Cell Signaling Technology, Danvers, MA, Danvers, MA), ATR (#13934, Cell Signaling Technology, Danvers, MA, Danvers, MA), pATM (#31068, Cell Signaling Technology, Danvers, MA, Danvers, MA), ATM (#2873, Cell Signaling Technology, Danvers, MA, Danvers, MA), pChk2 (#12298, Cell Signaling Technology, Danvers, MA, Danvers, MA), Chk2 (#2662, Cell Signaling Technology, Danvers, MA, Danvers, MA), MSH2 (#2017, Cell Signaling Technology, Danvers, MA, Danvers, MA), MLH1 (#3515, Cell Signaling Technology, Danvers, MA, Danvers, MA), XPO1 (#46249, Cell Signaling Technology, Danvers, MA, Danvers, MA), and actin (#3700, Cell Signaling Technology, Danvers, MA, Danvers, MA). Quantifications were performed with the Image Studio software (Version 3.1, LI-COR Biosciences, Lincoln, NE). Immunohistochemistry for Exportin-1 was performed with the Exportin-1 antibody #611833 from BD in TMAs including resected tumor samples form SCLC and NSCLC patients. All study subjects had provided signed informed consent for biospecimen analyses under an Institutional Review Board-approved protocol.

Assay [4] deals with DNA damage response pathways in H82 cells. In words: Western blot of DNA damage sensing and repair proteins. The assay is classed as cell-based. As to the method: as §2
The subject of a further assay is XPO1-KO (sgXPO1) cells. In words: Selinexor specificity assay: viability of XPO1-expressing and XPO1-KO isogenic cells. The assay is classed as cell-based. The settings on record: XPO1-KO isogenic cell line; viability normalized to untreated. The source says:
HSA synergy scores for H69 Cisplatin+Selinexor and H69 Cisplatin+KPT-185 are 6.55 and 8.52, respectively. HSA synergy scores for H82 Cisplatin+Selinexor and H82 Cisplatin+KPT-185 are 12.29 and 10.68, respectively. […] The sequence of the sgXPO1 is AACCTGAACGAAATGCCTG (SEQ ID NO: 16). […] Two tailed Student's t-test was used to assess statistical significance of the differential expression between groups. p-values legend: * p<0.05, ** p<0.01, *** p<0.001.

The next assay deals with H82 cells. In words: Propidium iodide / annexin V apoptosis assay by flow cytometry. The assay is classed as cell-based. The settings on record: GI20 concentrations, 3 days. As for the experimental part:
Parental cells were treated with cisplatin (GI20), Selinexor (GI20) or their combination for 3 days. Alternatively, control and XPO1 CRISPR-KO cells were treated with cisplatin […] for 3 days. Then, cells were collected and stained with the APC Annexin V Apoptosis Detection Kit with PI (#640932, Biolegend, San Diego, CA) and apoptosis was analyzed by flow cytometry as previously described in Shrestha, C. L. et al., PLoS One 12: 1-17 (2017).

The subject of assay [5] is Lx108-R ASCL1^high cisplatin/etoposide-resistant SCLC PDX. In words: In vivo treatment, tumor growth of cisplatin/etoposide-resistant SCLC PDX Lx108-R. On the set-up: species or system mice. The settings on record: right after chemotherapy relapse in vivo. As to the method: as §1
Assay [6] relates to Lx304B ASCL1^high SCLC PDX from chemorelapsed tumor. The experiment in a line: In vivo treatment, tumor growth of chemorelapsed SCLC PDX Lx304B. To be noted: Lx304B PDX in NSG mice; day 24; irinotecan 50 mg/kg i.p. WQ, Selinexor 10 mg/kg p.o. QDx3. As to the method: as §1
Assay [7] concerns Lx1322 non-NE SCLC PDX from chemorelapsed tumor. In words: In vivo treatment, tumor growth of chemorelapsed SCLC PDX Lx1322. The settings on record: Lx1322 PDX in NSG mice; day 14; irinotecan 50 mg/kg i.p. WQ, Selinexor 10 mg/kg p.o. QDx3. As to the method:
as §1

Take `COc1cc([C@@H]2c3cc4c(cc3[C@@H](O[C@@H]3O[C@@H]5CO[C@@H](C)O[C@H]5[C@H](O)[C@H]3O)[C@H]3COC(=O)[C@H]23)OCO4)cc(OC)c1O` [etoposide]: the “T/C percentage values at control group endpoint” value in [1] turned out to be 54.59%. Moreover, the “T/C percentage values at control arm endpoint” value in assay [2] is recorded as 63.14%.
Consider `N.N.[Cl][Pt][Cl]` [cisplatin], for which the “phosphorylation of mTOR, AKT and PRAS40 / AKT/mTOR pathway activation (Western blot)” value in assay [3] is listed as “Increased phosphorylation”. Besides, the “T/C percentage values at control group endpoint” value in assay [1] is on record as 67.04%. Also, the “T/C percentage values at control arm endpoint” value in assay [2] is on record as 79.73%. Further, the “activation of ATR and ATM (Western blot)” value in assay [4] (cisplatin treatment) is “activated”.
Turning to `O=C(/C=C\n1cnc(-c2cc(C(F)(F)F)cc(C(F)(F)F)c2)n1)NNc1cnccn1` [Selinexor], the “cell viability after Selinexor treatment in the XPO1-KO cell line” value with XPO1-KO (sgXPO1) cells is recorded as “no effect in viability”. The “phosphorylation of mTOR, AKT and PRAS40 / AKT/mTOR pathway activation (Western blot)” value in assay [3] was “suppressed”. For the same compound, in the assay on H82 cells, the “apoptosis (propidium iodide/annexin V)” value is reported as “increased apoptosis”. Besides, in assay [1], the “T/C percentage values at control group endpoint” value was 38.52%. Moreover, in assay [2], the “T/C percentage values at control arm endpoint” value was found to be 40.99%. Moreover, the “reduction in the expression of MSH2 and MLH1 (Western blot)” value in assay [4] (Selinexor treatment) is listed as “not observed”.
Consider `CCc1c2c(nc3ccc(OC(=O)N4CCC(N5CCCCC5)CC4)cc13)-c1cc3c(c(=O)n1C2)COC(=O)[C@]3(O)CC` [irinotecan], for which the “T/C percentage at experiment endpoint” value in [5] was 75.27%. Moreover, in [3], the “phosphorylation of mTOR, AKT and PRAS40 / AKT/mTOR pathway activation (Western blot)” value was “induced”. Also, the “T/C percentage values at control arm endpoint” value is on record as 23.82% in assay [6] and 18.09% in assay [7].

For the origin of these results see patent US20240254564A1, “METHODS FOR PREDICTING AND TREATING CHEMORESISTANCE IN SMALL CELL LUNG CANCER PATIENTS” (MEMORIAL SLOAN-KETTERING CANCER CENTER, priority 2021, published 2024).
